# Test results taken from patent US20190248739A1 (NEWLINK GENETICS CORPORATION, priority 2015, published 2019).
# Counter-ions that a name gives are not always drawn. Where a SMILES comes first, the peptide text is derived from it. [ ]: non-standard residue; d: D form. dTrp(1-Me) = Cn1cc(C[C@@H](N)C(=O)O)c2ccccc21
# Assays:
# [1] = pharmacokinetic testing of indoximod prodrug salts in solid capsule formulation in rats; assay type: in vivo; conditions: rats; for increase in indoximod AUC versus equivalent molar dose of indoximod / increase in indoximod Cmax versus equivalent molar dose of indoximod: dose not given (Tables 10.2, 10.3); for % Change Cmax / % Change in AUC: vs indoximod free base, oral capsules
# Procedure: These blends were formulated so that each capsule contained the same molar dose of each prodrug. […] The composition and uniformity of a representative sample of capsules from each batch was verified by weight and by LC-MS/MS to determine the average indoximod or prodrug content.
# (§1) Rats were fasted 16 h prior to dosing to eliminate any confounding food effects, and food was returned 2 h after dosing.
# [2] = pharmacokinetic testing of indoximod salts in capsule formulation in rats; assay type: in vivo; conditions: capsules
# Procedure: Three dose levels were investigated: 37, 185 or 500 μmol/kg.
# Capsules were manually filled and the composition uniformity of a representative sample of capsules from each batch was verified by weight and by LC-MS/MS to determine the average indoximod content.
# as §1
# [3] = hygroscopicity and stability of indoximod and its salts; assay type: physicochemical; conditions: Table 2, in % (unit assumed)
# [4] = solubility of indoximod and its salts in water, buffers and SGF; assay type: physicochemical; conditions: 25° C.
# [5] = pharmacokinetic testing of indoximod prodrugs in liquid formulation in mice; conditions: mice; for change in indoximod Cmax versus indoximod in suspension: oral, all doses tested (10, 50 and 100 mg/kg)
# Procedure: Blood samples (0.1-0.2 mL) were collected from the femoral artery port from rats or by retro-orbital bleeding from mice and plasma was immediately collected by centrifugation and stored on dry ice to avoid prodrug hydrolysis after plasma collection. […] The pharmacokinetic parameters reflect the average of individual parameter values obtained from each individual rat (n) or one common parameter from a single pharmacokinetic curve derived from blood samples obtained from a group of mice (n).
# [6] = 37 μmol/kg, listed as Indoximod phosphate, phosphate
# [7] = 185 μmol/kg, listed as Indoximod phosphate, phosphate
# [8] = 500 μmol/kg, listed as Indoximod phosphate, phosphate
# [9] = Table 10.1, dose 37 μmol/kg, salt form free base
# [10] = Table 10.2, dose 37 μmol/kg, salt form HCl
# [11] = Table 10.2, dose 185 μmol/kg, salt form H3PO4
# [12] = Table 10.2, dose 185 μmol/kg, salt form HCl
# [13] = Table 10.3, dose 37 μmol/kg, salt form free base
compound,measurement,setting,value
"Cn1cc(C[C@@H](NC(=O)CN)C(=O)O)c2ccccc21 [Cpd 05, N^α-(L-glycyl)-1-methyl-D-tryptophan] (H-Gly-[dTrp(1-Me)]-OH)",increase in indoximod AUC versus equivalent molar dose of indoximod,[1]; capsules,minor and non-statistically significant variations
same,increase in indoximod Cmax versus equivalent molar dose of indoximod,[1]; capsules,minor and non-statistically significant variations
"CCOC(=O)[C@@H](Cc1cn(C)c2ccccc12)NC(=O)C[C@H](N)C(=O)OC.Cl [NLG-1585, methyl N^4-((R)-1-ethoxy-3-(1-methyl-1H-indol-3-yl)-1-oxopropan-2-yl)-L-asparaginate hydrochloride]",increase in indoximod AUC versus equivalent molar dose of indoximod,[1]; capsules,minor and non-statistically significant variations
same,increase in indoximod Cmax versus equivalent molar dose of indoximod,[1]; capsules,minor and non-statistically significant variations
"CCOC(=O)[C@@H](Cc1cn(C)c2ccccc12)NC(=O)[C@@H](N)CC(C)C [NLG-1666, (S)-1-(((R)-1-ethoxy-3-(1-methyl-1H-indol-3-yl)-1-oxopropan-2-yl)amino)-4-methyl-1-oxopentan-2-aminium methanesulfonate]",increase in indoximod Cmax versus indoximod,"[1]; capsules, 37-185 μmol/kg, methanesulfonate",significant increases
"Cn1cc(C[C@@H](N)C(=O)OCC(O)CO)c2ccccc21 (stereo partly drawn) [NLG-1628, (2R)-1-(2,3-dihydroxypropoxy)-3-(1-methyl-1H-indol-3-yl)-1-oxopropan-2-aminium sulfate]",increase in indoximod AUC versus equivalent molar dose of indoximod,[1]; capsules,less significant increases
same,increase in indoximod Cmax versus equivalent molar dose of indoximod,[1]; capsules,less significant increases
"Cn1cc(C[C@@H](N)C(=O)O)c2ccccc21 [indoximod H3PO4, (R)-1-carboxy-2-(1-methyl-1H-indol-3-yl)ethan-1-aminium dihydrogen phosphate]",% Increase over indoximod Free Base (AUC),[2]; [6],significant increase
same,% Increase over indoximod Free Base (Cmax),[2]; [6],significant increase
same,% Increase over indoximod Free Base (AUC),"[2]; 37 μmol/kg, phosphate",43%
same,% Increase over indoximod Free Base (Cmax),"[2]; 37 μmol/kg, phosphate",40%
same,AUC(0 −> ∞),"[2]; 37 μmol/kg, phosphate",558 ± 185 µM·h
same,Cmax,"[2]; 37 μmol/kg, phosphate",22.3 ± 9 µM
same,% Increase over indoximod Free Base (AUC),[2]; [7],significant increase
same,% Increase over indoximod Free Base (Cmax),[2]; [7],significant increase
same,% Increase over indoximod Free Base (AUC),"[2]; 185 μmol/kg, phosphate",34%
same,% Increase over indoximod Free Base (Cmax),"[2]; 185 μmol/kg, phosphate",96%
same,AUC(0 −> ∞),"[2]; 185 μmol/kg, phosphate",1446 ± 645 µM·h
same,Cmax,"[2]; 185 μmol/kg, phosphate",40.9 ± 5 µM
same,% Increase over indoximod Free Base (AUC),[2]; [8],non-statistically significant decrease
same,% Increase over indoximod Free Base (Cmax),[2]; [8],significant decrease
same,% Increase over indoximod Free Base (AUC),"[2]; 500 μmol/kg, phosphate",−34%
same,% Increase over indoximod Free Base (Cmax),"[2]; 500 μmol/kg, phosphate",−51%
same,AUC(0 −> ∞),"[2]; 500 μmol/kg, phosphate",1902 ± 1288 µM·h
same,Cmax,"[2]; 500 μmol/kg, phosphate",37.2 ± 10 µM
same,Hygroscopicity (0-80% RH),[3]; phosphate,1.7
same,"Solubility (25° C., mg/mL) SGF",[4]; phosphate,9.83 (NA) mg/mL
same,"Solubility (25° C., mg/mL) Water",[4]; phosphate,8.32 (NA) mg/mL
"Cn1cc(C[C@@H](N)C(=O)OCC(O)CO)c2ccccc21.O=P(O)(O)O (stereo partly drawn) [NLG-1626, (2R)-1-(2,3-dihydroxypropoxy)-3-(1-methyl-1H-indol-3-yl)-1-oxopropan-2-dihydrogen phosphate]",change in indoximod AUC versus indoximod,"[5]; oral, 10, 50 and 100 mg/kg, percentage of increase decreases at higher doses",dose dependent increase
same,change in indoximod Cmax versus indoximod in suspension,[5],significant increase
Cn1cc(C[C@@H](NC(=O)[C@@H](N)CCCCN)C(=O)O)c2ccccc21 [NLG-1676] (H-Lys-[dTrp(1-Me)]-OH),% Change Cmax,[1]; [9],−17%
same,% Change in AUC,[1]; [9],−13%
CCOC(=O)[C@@H](Cc1cn(C)c2ccccc12)NC(=O)[C@@H](N)CC(C)C.O=P(O)(O)O [NLG-1665],increase in indoximod Cmax versus indoximod,"[1]; capsules, 37-185 μmol/kg",significant increases
same,change in indoximod Cmax versus indoximod in suspension,[5],significant increase
"CCOC(=O)[C@@H](Cc1cn(C)c2ccccc12)NC(=O)[C@@H](N)CCSC [NLG-3272, ethyl N^α-(L-methionyl)-1-methyl-D-tryptophanate] (H-Met-[dTrp(1-Me)]-OEt)",change in indoximod AUC versus indoximod,"[1]; capsules, 37-500 μmol/kg",statistically significant increase
same,change in indoximod Cmax versus indoximod,"[1]; capsules, 37-500 μmol/kg",statistically significant increase
Cn1cc(C[C@@H](NC(=O)[C@@H](N)CCCCN)C(=O)O)c2ccccc21 [N^α-(L-lysyl)-1-methyl-D-tryptophan] (H-Lys-[dTrp(1-Me)]-OH),increase in indoximod AUC versus equivalent molar dose of indoximod,[1]; capsules,minor and non-statistically significant variations
same,increase in indoximod Cmax versus equivalent molar dose of indoximod,[1]; capsules,minor and non-statistically significant variations
CSCC[C@H](N)C(=O)N[C@H](Cc1cn(C)c2ccccc12)C(=O)O [NLG-3380] (H-Met-[dTrp(1-Me)]-OH),% Change Cmax,[1]; [10],16%
same,% Change in AUC,[1]; [10],24%
same,% Change Cmax,[1]; [11],118%
same,% Change in AUC,[1]; [11],66%
same,% Change Cmax,[1]; [12],345%
same,% Change in AUC,[1]; [12],181%
O=S(=O)(O)O [Sulfate],Hygroscopicity (0-80% RH),[3],3.4
"CCOC(=O)[C@@H](Cc1cn(C)c2ccccc12)NC(=O)[C@@H](N)CC(C)C.Cl [NLG-1564, ethyl N^α-(L-leucyl)-1-methyl-D-tryptophanate hydrochloride]",change in indoximod AUC compared to indoximod,"[1]; capsules, 500 μmol/kg",minor increase
same,change in indoximod Cmax compared to indoximod,"[1]; capsules, 500 μmol/kg",minor increase
same,increase in indoximod Cmax versus indoximod,"[1]; capsules, 37-185 μmol/kg",significant increases
CS(=O)(=O)O.Cn1cc(C[C@@H](N)C(=O)O)c2ccccc21.Cn1cc(C[C@@H](N)C(=O)O)c2ccccc21 [Hemi-Mesylate],"Solubility (25° C., mg/mL) SGF",[4],6.0 mg/mL
same,pH of the SGF solution (in brackets),[4]; SGF solubility test,1.84
same,"Solubility (25° C., mg/mL) Water",[4],5.5 mg/mL
same,pH of the water solution (in brackets),[4]; water solubility test,2.34
"Cn1cc(C[C@@H](N)C(=O)OCC(O)CO)c2ccccc21 (stereo partly drawn) [NLG-1627, (2R)-1-(2,3-dihydroxypropoxy)-3-(1-methyl-1H-indol-3-yl)-1-oxopropan-2-aminium methanesulfonate]",increase in indoximod AUC versus equivalent molar dose of indoximod,"[1]; capsules, methanesulfonate",decrease
same,increase in indoximod Cmax versus equivalent molar dose of indoximod,"[1]; capsules, methanesulfonate",decrease
CCOC(=O)[C@@H](Cc1cn(C)c2ccccc12)NC(=O)[C@@H](N)CCC(N)=O [ethyl N^α-(L-glutaminyl)-1-methyl-D-tryptophanate] (H-Gln-[dTrp(1-Me)]-OEt),increase in indoximod AUC versus equivalent molar dose of indoximod,[1]; capsules,minor and non-statistically significant variations
same,increase in indoximod Cmax versus equivalent molar dose of indoximod,[1]; capsules,minor and non-statistically significant variations
CCOC(=O)[C@@H](Cc1cn(C)c2ccccc12)NC(=O)[C@@H](N)CCC(N)=O [NLG-1672] (H-Gln-[dTrp(1-Me)]-OEt),% Change Cmax,[1]; [13],5%
same,% Change in AUC,[1]; [13],−16%
"Cn1cc(C[C@@H](N)C(=O)OCC(O)CO)c2ccccc21 (stereo partly drawn) [NLG-1558, 2,3-dihydroxypropyl 1-methyl-D-tryptophanate hydrochloride]",increase in indoximod AUC versus equivalent molar dose of indoximod,"[1]; capsules, hydrochloride",less significant increases
same,increase in indoximod Cmax versus equivalent molar dose of indoximod,"[1]; capsules, hydrochloride",less significant increases
"Cn1cc(C[C@@H](N)C(=O)O)c2ccccc21 [indoximod H2SO4, (R)-1-carboxy-2-(1-methyl-1H-indol-3-yl)ethan-1-aminium hydrogen sulfate]",% Increase over indoximod Free Base (AUC),"[2]; 37 μmol/kg, hydrogen sulfate",42%
same,% Increase over indoximod Free Base (Cmax),"[2]; 37 μmol/kg, hydrogen sulfate",42%
same,AUC(0 −> ∞),"[2]; 37 μmol/kg, hydrogen sulfate",553 ± 196 µM·h
same,Cmax,"[2]; 37 μmol/kg, hydrogen sulfate",22.6 ± 7 µM
"CCOC(=O)[C@@H](Cc1cn(C)c2ccccc12)NC(=O)[C@@H](N)CC(C)C [NLG-1691, ethyl N^α-((S)-2-(λ^4-azanyl)-4-methylpentanoyl)-1-methyl-D-tryptophanate sulfate]",increase in exposure (AUC) of indoximod versus indoximod,"[1]; capsules, 37-185 μmol/kg",did not result in a significant increase
same,increase in indoximod Cmax versus indoximod,"[1]; capsules, 37-185 μmol/kg",did not result in a significant increase
